Molecular target: T1, hen egg lysozyme (Gallus gallus, UniProt P00698)
T1 construct: from tissue; host or cells: hen egg
Experiment: lysozyme denaturation/stabilization test: lysozyme activity on M. luteus suspension, optical density at 450nm
Format: biochemical
Conditions: Table 1, saline + 20 mM buffering agent
Experimental: Each solution included saline and 20 mM of buffering agent as specified in Table 1 below. To each test solution was added 1 mg/ml of hen egg lysozyme as well as a phosphate buffered saline (PBS) control. The test solutions were mixed slowly with a stir bar until the lysozyme was incorporated into the solutions. Five ml of each lysozyme-containing test solution was retained as the unheated control. The remaining 5 ml of each lysozyme-containing test solution were placed in glass less vials, capped with silicone stoppers and incubated in a shaking water bath at 80° C. 40 revolutions per minute (rpm) for 1 hour—these heating conditions are sufficient to denature the lysozyme, absent a stabilization effect provided by the buffering agents. The vials were allowed to come to ambient temperature before testing. A 0.00025 g/ml suspension of M. luteus was prepared from lyophilized cells in PBS. The suspension was continually mixed on a stir plate during the testing period to prevent the suspension from settling. For each set of test solutions, the following were tested (sample): a heated lysozyme-containing test solution (“lysozyme+heat”); an unheated lysozyme-containing test solution (“lysozyme/no heat”; and a test solution without lysozyme (“no lysozyme”). One ml of each sample was placed into a glass test tube to which 9 ml of M. luteus suspension was added and vortexed. A 1-ml sub sample was placed into a disposable cuvette and evaluated on a UV-vis spectrophotometer at 450nm. […] Each of the solutions were evaluated in triplicate. Each of the three optical density measurements from the triplicate samples were averaged.

[1] = lysozyme + heat (80° C., 1 hour)
[2] = lysozyme/no heat, 1 mg/ml lysozyme

T1 sequence (P00698 19-147): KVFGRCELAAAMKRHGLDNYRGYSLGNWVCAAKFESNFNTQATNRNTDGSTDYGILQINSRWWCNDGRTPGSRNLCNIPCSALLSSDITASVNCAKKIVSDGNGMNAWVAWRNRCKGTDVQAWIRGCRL

Row | Time 0 Min (optical density, 450nm) [1] | Percent Change 5 Min [1] [%] | Time 5 Min (optical density, 450nm) [1] | Percent Change 10 Min [1] [%] | Time 10 Min (optical density, 450nm) [1] | Time 0 Min (optical density, 450nm) [2] | Percent Change 5 Min (lysozyme/no heat) [%] | Time 5 Min (optical density, 450nm) (lysozyme/no heat) | Percent Change 10 Min (lysozyme/no heat) [%] | Time 10 Min (optical density, 450nm) (lysozyme/no heat) | Time 0 Min (optical density, 450nm) (no lysozyme) | Percent Change 5 Min (no lysozyme) [%] | Time 5 Min (optical density, 450nm) (no lysozyme) | Percent Change 10 Min (no lysozyme) [%] | Time 10 Min (optical density, 450nm) (no lysozyme) | Compound
1 | 0.877 | 2.96 | 0.851 | 10.49 | 0.785 | 0.654 | 92.51 | 0.049 | 95.41 | 0.030 | 0.857 | 0.82 | 0.850 | 0.82 | 0.850 | O=C(O)CC(O)(CC(=O)O)C(=O)O [Citrate]
2 | 0.810 | 80.99 | 0.154 | 85.56 | 0.117 | 0.654 | 92.66 | 0.048 | 95.72 | 0.028 | 0.859 | 0.58 | 0.854 | 0.58 | 0.854 | NC(CO)(CO)CO [Tris, 2-amino-2-hydroxymethyl-1,3-propanediol]
3 | 0.861 | 0.34 | 0.858 | 1.05 | 0.852 | 0.634 | 91.80 | 0.052 | 95.43 | 0.029 | 0.856 | 0.47 | 0.852 | 0.23 | 0.854 | Phosphate

Row | Compound | Time 0 Min (optical density, 450nm) [1] | Percent Change 5 Min [1] [%] | Time 5 Min (optical density, 450nm) [1] | Percent Change 10 Min [1] [%] | Time 10 Min (optical density, 450nm) [1] | Time 0 Min (optical density, 450nm) [2] | Percent Change 5 Min (lysozyme/no heat) [%] | Time 5 Min (optical density, 450nm) (lysozyme/no heat) | Percent Change 10 Min (lysozyme/no heat) [%] | Time 10 Min (optical density, 450nm) (lysozyme/no heat) | Time 0 Min (optical density, 450nm) (no lysozyme) | Percent Change 5 Min (no lysozyme) [%] | Time 5 Min (optical density, 450nm) (no lysozyme) | Percent Change 10 Min (no lysozyme) [%] | Time 10 Min (optical density, 450nm) (no lysozyme)
4 | Borate | 0.872 | 21.90 | 0.681 | 55.28 | 0.390 | 0.619 | 91.44 | 0.053 | 94.51 | 0.034 | 0.853 | 0.00 | 0.853 | −0.12 | 0.854

From patent publication US20030153475A1, “Composition for treating contact lenses” (priority 2001, published 2003)
